Molecular target: T1, ATPase family AAA domain-containing protein 2 (Homo sapiens, UniProt Q6PL18)
T1 sequence (Q6PL18 whole entry): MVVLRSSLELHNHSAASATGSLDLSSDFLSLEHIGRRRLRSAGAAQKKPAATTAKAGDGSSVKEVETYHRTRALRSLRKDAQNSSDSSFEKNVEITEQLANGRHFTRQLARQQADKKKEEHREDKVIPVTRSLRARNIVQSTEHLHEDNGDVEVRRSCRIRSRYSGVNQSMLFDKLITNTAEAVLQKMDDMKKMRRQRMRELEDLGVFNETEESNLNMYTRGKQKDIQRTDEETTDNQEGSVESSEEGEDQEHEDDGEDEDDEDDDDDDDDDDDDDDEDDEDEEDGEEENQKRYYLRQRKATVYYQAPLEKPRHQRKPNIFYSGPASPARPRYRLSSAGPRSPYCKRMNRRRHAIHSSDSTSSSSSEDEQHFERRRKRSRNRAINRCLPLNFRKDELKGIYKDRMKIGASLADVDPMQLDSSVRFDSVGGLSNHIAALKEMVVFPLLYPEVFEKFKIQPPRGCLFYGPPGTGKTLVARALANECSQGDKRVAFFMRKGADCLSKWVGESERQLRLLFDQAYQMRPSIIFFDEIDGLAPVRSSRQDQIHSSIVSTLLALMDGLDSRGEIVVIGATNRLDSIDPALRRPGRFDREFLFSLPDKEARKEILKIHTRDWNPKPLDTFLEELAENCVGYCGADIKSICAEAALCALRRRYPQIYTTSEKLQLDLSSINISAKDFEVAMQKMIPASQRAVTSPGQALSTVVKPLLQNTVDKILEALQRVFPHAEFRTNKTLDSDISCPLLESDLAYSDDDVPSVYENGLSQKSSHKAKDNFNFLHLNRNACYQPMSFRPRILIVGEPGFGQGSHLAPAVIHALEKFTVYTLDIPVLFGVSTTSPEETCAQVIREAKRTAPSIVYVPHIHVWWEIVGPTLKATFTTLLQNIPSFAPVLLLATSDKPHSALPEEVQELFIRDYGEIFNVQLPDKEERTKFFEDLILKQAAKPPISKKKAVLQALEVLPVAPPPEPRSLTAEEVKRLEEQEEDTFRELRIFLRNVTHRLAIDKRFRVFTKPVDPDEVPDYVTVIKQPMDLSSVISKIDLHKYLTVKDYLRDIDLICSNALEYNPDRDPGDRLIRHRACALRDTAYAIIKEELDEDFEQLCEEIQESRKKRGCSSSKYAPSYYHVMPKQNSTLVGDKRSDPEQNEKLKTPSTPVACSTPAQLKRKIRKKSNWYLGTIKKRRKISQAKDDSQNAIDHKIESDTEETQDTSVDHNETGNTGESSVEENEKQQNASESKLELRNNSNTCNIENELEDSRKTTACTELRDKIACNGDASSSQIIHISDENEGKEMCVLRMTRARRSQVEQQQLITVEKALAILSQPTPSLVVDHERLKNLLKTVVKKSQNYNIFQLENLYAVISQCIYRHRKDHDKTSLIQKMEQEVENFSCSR
Assay: Binding affinity to recombinant human ATAD2 (982 to 1108 amino acids) bromodomain […] at methyl groups of leucine, valine, isoleucine, methionine expressed in Escherichia coli BL21 (DE3) by NMR titration

Kd [mM]	Compound
21	Cc1cn([C@@H]2O[C@H](CO)[C@@H](O)[C@H]2O)c(=O)[nH]c1=O
17	Cc1cn([C@@H]2O[C@H](CN)[C@@H](O)[C@H]2O)c(=O)[nH]c1=O
18	Cc1cn([C@H]2CC[C@@H](CO)O2)c(=O)[nH]c1=O
10	Cc1c[nH]c(=O)[nH]c1=O [THYMINE]

Compound	Kd [mM]
Cc1cn([C@H]2C[C@H](O)[C@@H](CO)O2)c(=O)[nH]c1=O [DOXRIBTIMINE]	10

Source: ChEMBL document CHEMBL3621199, “Structure-based approaches towards identification of fragments for the low-druggability ATAD2 bromodomain” (Medchemcomm, 2014)
